The values below come from ChEMBL document CHEMBL1149122 (J Med Chem, 2004).

Each structure is given as a SMILES string.

For experiment [1], the target named is T1, Amine oxidase [flavin-containing] B (Homo sapiens, UniProt P27338).
T1 sequence (P27338 whole entry): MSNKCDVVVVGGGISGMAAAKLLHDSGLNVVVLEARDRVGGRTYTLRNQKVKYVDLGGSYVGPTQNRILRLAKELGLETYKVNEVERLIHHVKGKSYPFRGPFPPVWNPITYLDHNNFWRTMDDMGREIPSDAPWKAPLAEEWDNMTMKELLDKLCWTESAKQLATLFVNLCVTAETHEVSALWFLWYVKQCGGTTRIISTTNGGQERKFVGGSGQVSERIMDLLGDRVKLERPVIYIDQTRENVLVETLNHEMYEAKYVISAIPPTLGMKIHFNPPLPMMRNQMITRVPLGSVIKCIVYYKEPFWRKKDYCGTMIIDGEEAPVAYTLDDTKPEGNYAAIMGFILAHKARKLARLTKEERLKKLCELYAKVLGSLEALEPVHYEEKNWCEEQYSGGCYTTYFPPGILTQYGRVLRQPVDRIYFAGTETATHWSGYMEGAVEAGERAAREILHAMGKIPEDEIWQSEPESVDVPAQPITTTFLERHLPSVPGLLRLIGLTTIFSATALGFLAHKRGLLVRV
The experiment is described as follows: Binding affinity towards monoamine oxidase B activity was measured using a benzylamine assay.

In experiment [2] the target is T2, Amine oxidase [flavin-containing] A (Homo sapiens, UniProt P21397).
T2 sequence (P21397 whole entry): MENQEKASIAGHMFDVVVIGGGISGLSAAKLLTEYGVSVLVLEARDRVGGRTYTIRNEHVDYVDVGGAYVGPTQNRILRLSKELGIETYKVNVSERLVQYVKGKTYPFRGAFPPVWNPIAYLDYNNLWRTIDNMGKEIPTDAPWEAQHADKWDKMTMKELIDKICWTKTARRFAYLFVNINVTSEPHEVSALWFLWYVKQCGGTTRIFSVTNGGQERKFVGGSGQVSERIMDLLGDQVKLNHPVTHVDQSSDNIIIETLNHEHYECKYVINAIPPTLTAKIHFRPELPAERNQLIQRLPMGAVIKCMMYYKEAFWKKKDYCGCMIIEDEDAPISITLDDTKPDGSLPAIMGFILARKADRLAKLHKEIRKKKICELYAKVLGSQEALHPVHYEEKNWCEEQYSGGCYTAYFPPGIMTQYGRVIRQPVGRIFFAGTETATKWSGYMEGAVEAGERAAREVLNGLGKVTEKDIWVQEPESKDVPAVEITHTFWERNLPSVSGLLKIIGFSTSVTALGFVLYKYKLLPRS
The experiment is described as follows: Binding affinity towards monoamine oxidase A activity was measured using a kynuramine assay.

Experiment [3] addresses T3, Amine oxidase [flavin-containing] A (Rattus norvegicus, UniProt P21396).
T3 sequence (P21396 whole entry): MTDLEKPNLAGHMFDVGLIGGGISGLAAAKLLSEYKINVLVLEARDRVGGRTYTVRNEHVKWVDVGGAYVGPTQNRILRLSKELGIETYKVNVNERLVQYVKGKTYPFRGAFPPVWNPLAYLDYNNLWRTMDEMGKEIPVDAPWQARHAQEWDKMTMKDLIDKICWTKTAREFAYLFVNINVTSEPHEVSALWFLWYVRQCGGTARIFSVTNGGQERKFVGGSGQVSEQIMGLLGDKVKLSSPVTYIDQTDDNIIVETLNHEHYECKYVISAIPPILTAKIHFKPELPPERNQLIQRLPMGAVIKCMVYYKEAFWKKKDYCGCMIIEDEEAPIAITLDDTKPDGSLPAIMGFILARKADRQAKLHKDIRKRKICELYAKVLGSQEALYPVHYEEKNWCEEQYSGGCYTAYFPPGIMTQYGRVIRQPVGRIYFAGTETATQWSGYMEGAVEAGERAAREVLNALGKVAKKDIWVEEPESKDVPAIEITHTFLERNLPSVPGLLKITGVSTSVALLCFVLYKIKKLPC
The experiment is described as follows: Inhibitory concentration towards monoamine oxidase A in rat brain was measured. The format is tissue-based.

Experiment [4] concerns the target T4, Amine oxidase [flavin-containing] B (Rattus norvegicus, UniProt P19643).
T4 sequence (P19643 whole entry): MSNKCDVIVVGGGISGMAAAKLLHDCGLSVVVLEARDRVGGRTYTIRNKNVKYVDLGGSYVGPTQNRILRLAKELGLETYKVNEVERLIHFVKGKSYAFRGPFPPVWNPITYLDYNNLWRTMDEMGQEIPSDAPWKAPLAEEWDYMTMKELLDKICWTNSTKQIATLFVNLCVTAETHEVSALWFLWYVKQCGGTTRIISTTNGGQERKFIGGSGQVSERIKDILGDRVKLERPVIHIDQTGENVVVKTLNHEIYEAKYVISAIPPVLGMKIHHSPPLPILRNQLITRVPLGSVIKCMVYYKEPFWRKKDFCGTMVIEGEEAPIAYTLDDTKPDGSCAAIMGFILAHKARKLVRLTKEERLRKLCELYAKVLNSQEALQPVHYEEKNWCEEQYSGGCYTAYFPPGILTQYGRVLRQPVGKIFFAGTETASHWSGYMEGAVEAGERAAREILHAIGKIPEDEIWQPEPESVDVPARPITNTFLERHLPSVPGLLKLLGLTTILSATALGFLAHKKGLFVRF
Nature of the experiment: Inhibitory concentration towards monoamine oxidase B in rat brain was measured. The format is tissue-based.

Regarding `C#CCN(C)[C@@H]1CCc2ccccc21`, the Ki turned out to be 0.6 µM in experiment [1] and 4.9 µM in experiment [2].

With `C#CCN[C@@H]1CCc2ccc(O)cc21`, the Ki amounted to 17 µM in experiment [1] and 1.9 µM in experiment [2].

For the compound `C#CCN[C@@H]1CCc2ccc(OC(=O)N(C)CC)cc21` [LADOSTIGIL], the IC50 in experiment [3] amounted to 85 µM; in experiment [4] it was 120 µM. In addition, the inhibition constant Ki in experiment [1] was 213 µM; in experiment [2], 227 µM.

A word on the Ki: it is a dissociation constant, usually derived from enzyme kinetics or from competition with a known ligand. High values mean weaker binding, low ones tighter binding. One may read the IC50 as the point on the concentration scale where inhibition reaches its midpoint.
